Here are results for eleven molecules from patent US7598294B2, “3,4-methylenedioxy-substituted chalcones as therapeutic agents” (Spear Therapeutics Limited, priority 2001, dated 2009).

Data set [1] has as its system breast cancer MCF-7 cells. The experiment in a line: Intrinsic activity of prodrug and hydroxylated metabolite in breast cancer MCF-7 cells. The format is cell-based. Particulars: Homo sapiens, MCF7; prodrug versus hydroxylated metabolite.
For data set [2], the system named is K562. Particulars: antitumour activity; cited from earlier work.
Data set [3] is described as follows: MCF-7 cell line (non-induced) cytotoxicity assay (MTT). Particulars: human, MCF-7 breast tumour cells, non-induced (no TCDD), non-induced MCF-7 cells. The format is cell-based.
Data set [4] relates to MDA-468 (Breast Tumor). The experiment in a line: MDA-468 tumour cell line cytotoxicity assay. To be noted: for Tumor Selectivity Differential Factor: IC50 MCF-10A / IC50 MDA-468, fold more toxic to cancer cells than to normal cells.
Protocol: MDA-468 Tumour Cell Line Versus MCF-10A Normal Cell Line Assay
This cell culture based assay is performed using the two cell lines MDA-468 and MCF-10A. The MDA-468 cell line is an advanced breast cancer cell line, whilst the MCF-10A cell line is a normal breast cell line.
The tumour selectivity differential factor(TSDF) is calculated by dividing the IC50 obtained from the MCF-10A data by the IC50 obtained from the MDA-468 data.
The test system of data set [5] is MCF-10A (Normal Breast). Briefly: MCF-10A normal cell line cytotoxicity assay. Particulars: Homo sapiens, MCF-10A, read-out: IC50 against the normal cell line. The data set is classed as cell-based, human.
In data set [6] the test system is TCDD-induced MCF-7 cells. The experiment in a line: TCDD-induced MCF-7 cell line cytotoxicity assay (MTT). Particulars: for Tumor Selectivity Differential Factor: IC50 MCF-7 cells / IC50 TCDD-induced MCF-7 cells, fold more toxic to "tumour" cells than to "normal" cells; for IC50: read-out: Cytotoxicity TCDD-induced MCF-7 Cells IC50, 10 nM TCDD for 24 hours, then 96 hours with compound, MTT.
Protocol: TCDD-Induced MCF-7 Cell Line Versus MCF-7 Cell Line Cytotoxicity Assay
1×10^3 cells were plated out in 100 μl medium per well of 96-well flat-bottomed plates (Fisher). […] The medium was then carefully aspirated and 100 μl fresh medium added. […] 50 μl MTT (Thiazol blue, Sigma) at 2 mg/ml in Dulbecco's phosphate buffered saline-A, was then added to each well for 3 hours: All medium was aspirated, then the formazan product generated by viable cells was solubilized with 150 μl DMSO. Plates were vortexed and the absorbance at 540 nm determined using a plate reader. […] All determinations were carried out in at least triplicate.

Data set [7] can be described thus: MCF-10A normal cell line cytotoxicity assay. The format is cell-based, human. Particulars: human, MCF-10A normal breast cells; without TCDD.
The mark [8] stands for this setting: read-out: Cytotoxicity MDA-468 (Breast Tumor) IC50, without TCDD.

Read-outs that look alike come from different tables or passages of the source.

By IC50 is commonly meant the concentration at which inhibition is half-maximal. For orientation: melting point means the temperature of the solid-liquid transition.

Turning to `COc1cc(OC)cc(C(=O)/C=C/c2ccc(OC)c(O)c2)c1` [(E)-1-(3-Hydroxy-4-methoxyphenyl)-3-(3,5-dimethoxyphenyl) prop-1-en-3-one], the half-maximal inhibitory concentration (IC50) in data set [1] amounted to 0.65 nM.
As to `COc1ccc(/C=C/C(=O)c2cc(OC)cc(OC)c2)cc1` [(E)-1-(4-methoxyphenyl)-3-(3,5-dimethoxyphenyl)prop-1-en-3-one], in data set [1], the half-inhibitory concentration (IC50) is 690 nM.
Regarding `CC(=O)/C=C/c1ccc(O)cc1` [(E)-1-(4′-hydroxyphenyl)but-1-en-3-one], the 50% inhibitory concentration (IC50) in data set [2] is 60000 nM.
In turn, `COc1cc(C(=O)/C=C/c2ccc3c(c2)OCO3)cc(OC)c1OC` [DMU-135, (E)-1-(3,4-Methylenedioxyphenyl)-3-(3,4,5-trimethoxyphenyl)prop-1-en-3-one] had a melting point of 135 °C. Besides, the half-inhibitory concentration (IC50) at 96 h in data set [3] turned out to be 920 nM. Further, in data set [4], the “Tumor Selectivity Differential Factor” value was determined as 120. Moreover, the IC50 in data set [4] (read-out: IC50 against the advanced tumour cell line, MDA-468, FIG. 2) amounted to 20 nM. In addition, the IC50 in data set [5] came out at 2300 nM. Also, the “Tumor Selectivity Differential Factor” value in data set [6] worked out at 65.
`COc1cc(OC)cc(C(=O)/C=C/c2ccc3c(c2)OCO3)c1` [DMU-403, (E)-1-(3,4-methylenedioxyphenyl)-3-(3,5-dimethoxyphenyl)prop-1-en-3-one] had a 50% inhibitory concentration (IC50) at 96 h in data set [3] of 3500 nM. Moreover, in data set [6], the “Tumor Selectivity Differential Factor” value was 6 and the IC50 was 570 nM.
In the case of `COc1ccc(C(=O)/C=C/c2ccc3c(c2)OCO3)c(OC)c1` [DMU-407, (E)-1-(3,4-methylenedioxyphenyl)-3-(2,4-dimethoxyphenyl)prop-1-en-3-one], the melting point turned out to be 137 °C. In addition, in data set [3], the midpoint of inhibition, the IC50 at 96 h, lay at 7000 nM. Also, in data set [6], the “Tumor Selectivity Differential Factor” value came to 3 and the half-maximal inhibitory concentration (IC50) worked out at 2700 nM.
In turn, `COc1ccc(C(=O)/C=C/c2ccc3c(c2)OCO3)c(OC)c1OC` [DMU-419, (E)-1-(3,4-methylenedioxyphenyl)-3-(2,3,4-trimethoxyphenyl)prop-1-en-3-one] came in with an IC50 at 96 h in data set [3] of 2800 nM. Also, in data set [6], the “Tumor Selectivity Differential Factor” value is 3 and the IC50 came to 840 nM.
The molecule `COc1ccc(OC)c(C(=O)/C=C/c2ccc3c(c2)OCO3)c1` [DMU-423, (E)-1-(3,4-methylenedioxyphenyl)-3-(2,5-dimethoxyphenyl)prop-1-en-3-one] displayed a melting point of 101 °C. This molecule showed a half-inhibitory concentration (IC50) at 96 h in data set [3] of 3500 nM. Besides, in data set [6], the “Tumor Selectivity Differential Factor” value is reported as 13 and the IC50 is 260 nM.
As for `COc1cccc2c1C(=O)c1c(O)c3c(c(O)c1C2=O)C[C@@](O)(C(=O)CO)C[C@@H]3O[C@H]1C[C@H](N)[C@H](O)[C@H](C)O1` [Doxorubicin, doxorubicin], in data set [4], the “Tumor Selectivity Differential Factor” value is listed as 0.1. Moreover, in data set [4] (MCF-10A versus MDA-468), the “fold more toxic to normal cells than to cancer cells” value is 10 fold. In addition, in data set [4] (setting [8]), the concentration for half-maximal inhibition (IC50) was 3 nM. This molecule returned an IC50 at 96 h in data set [7] of 0.3 nM.
With `CN(Cc1cnc2nc(N)nc(N)c2n1)c1ccc(C(=O)N[C@@H](CCC(=O)O)C(=O)O)cc1` [Methotrexate, methotrexate], the “Tumor Selectivity Differential Factor” value in data set [4] amounted to 1.5. For the same molecule, the half-maximal inhibitory concentration (IC50) in data set [4] (setting [8]) came to 40 nM. Besides, the half-maximal inhibitory concentration (IC50) at 96 h in data set [7] amounted to 60 nM.
On to `CC/C(=C(\c1ccccc1)c1ccc(OCCN(C)C)cc1)c1ccccc1` [Tamoxifen, tamoxifen], for which, in data set [4], the “Tumor Selectivity Differential Factor” value is recorded as 1.6. The IC50 in data set [4] (setting [8]) came out at 4000 nM. In addition, the IC50 at 96 h in data set [7] was 6300 nM.
